Data published in patent publication US11434255B2, “Nucleoside and nucleotide analogues bearing a quaternary all-carbon stereogenic center at the 2′ position and methods of use as a cardioprotective agent” (LCB PHARMA INC., priority 2016, dated 2022).
Like-named read-outs stand apart in the source and are kept apart here.

Experiments:
[1] = tested on: wild type mice, DOX-induced toxicity; assay: In vivo echocardiography in DOX-treated mice
Experimental: (§1) Mice were handled in accordance with institutional guidelines for animal care. Experiments were approved by the institutional Animal Care Committees and the investigation conforms with the Guide for the Care and Use of Laboratory Animals published by the US National Institutes of Health (NIH Publication N. 85-23, revised 1985). Doxorubicin treatment was a single ip injection of 5 or 15 mg/kg as previously described by Aries et al.^6 ALZET micro-osmotic pumps (Model 1002, 0.25 μl/hr, 14 days) were filled with DMSO, Ang II (0.5 μgKg/day) LCB2122 (2.0 or 2.8 μg/Kg/day) diluted in normal saline and inserted subcutaneously in mice for two weeks. M-mode echocardiography was performed using Visual-Sonics VEVO 2100 system and 30-MHz linear array transducer, on lightly anesthetized mice using […], 80 ml/min of 100% oxygen, as described by Aries et al. and echocardiographic indices were calculated as described by Yang et al.^17 Heart failure was defined as EF<45%.

primary cardiomyocytes [2] = assay: TUNEL assay, primary cardiomyocytes treated with 3 μM Doxorubicin for 6 hours (Table 1); format: cell-based; settings: Cardiomyocyte
Experimental: (§2) Primary cardiomyocyte monologues covered by serum free media (SF) were treated with DMSO (vehicle), Doxorubicin (DOX) (300 nM), Imatinib (Imat) (5 μM), and/or LCB2122 at varying concentrations (0.1, 0.5, 1.5 at 10 μM) diluted in SF for 3, 6, 18 or 24 hours. The TUNEL assay (Terminal Deoxynucleotidyltransferase mediated dUTP End Labeling) was utilized to detect apoptotic nuclei using an Apop Tag Red in Situ Apoptosis Detection Kit (Millipore, Temecula, Calif.). A Zeis fluorescent microscope was used for image acquisition. Cell counting was done using the Imager® Software.
The cardioprotective profile of LCB2122, LC2165, LCB2191 and LCB2177 were also investigated. As above, primary cardiomyocytes were treated with 3 μM of Doxorubicin for 6 hours alone or with the above compounds of the invention. The TUNEL assay was utilized to detect apoptotic nuclei. […] LCB2165, LCB2191 and LCB2177 were also active with IC50's of 5 μM.

heart cardiomyocytes = assay: TUNEL assay on heart sections of DOX-treated mice; format: in vivo; settings: after 2 weeks, FIG. 11
Experimental: as §1
After these 2 weeks, heart cardiomyocytes were also tested by TUNEL assay (on heart sections).

[3] = tested on: HepG2 human cancer cell line; assay: Cell Titer Glo growth inhibition, DOX +/- LCB2122; format: cell-based
Text: Indeed, the IC50 of DOX in HepG2 human cancer cell line was identical in the absence or presence of LCB2122. FIG. 8 is a plot representing the percent growth inhibition as measured by Cell Titer Glo assays done on HepG2 cells treated with varying concentrations of DOX+/−LCB-2122 ([…]).

AT1R mice = assay: Echocardiography in AT1R transgenic (heart failure model) and wild-type mice; format: in vivo
Experimental: as §1
Transgenic mice overexpressing the human angiotensin II type 1 receptor^7 (AT1R) under the control of the mouse α-myosin heavy chain were generated. These mice are a model of human HF. Cardiomyocyte specific overexpression induced in basal conditions overtime, morphologic changes that mimic those observed during the development of cardiac hypertrophy in humans. In order words, these mice develop age-dependent HF.
All AT1R mice had EF % less than 40%, similar to HF patients in human. […] LCB2122 treated AT1R mice (2.0 μg/kg/day for 4 weeks) had their cardiac functions improved as opposed to untreated mice. […] The data shown are the individual values of each mouse at weeks 0 and 4. All WT mice had normal EF % independent of LCB2122 treatment throughout the study. All AT1R mice were in HF prior to any treatment.

primary cardiomyocytes [4] = assay: TUNEL assay, Imatinib-induced apoptosis in primary cardiomyocytes; format: cell-based; settings: Cardiomyocyte, 6 hours, FIG. 6, read-out: EC50, prevention of apoptosis induced by Imatinib
Experimental: as §2

cardiomyocytes = assay: Sarcomeric alpha-actinin immunofluorescence on cardiomyocytes; format: cell-based; settings: 5 uM, six hours, FIG. 7
Experimental: Immunofluorescence were performed on cardiomyocytes as previously described,^16 using a sarcomeric alpha-Actinin antibody (1/500).
FIG. 7 is a micrograph showing α-actinin immunostaining (straight lines) of 2% PFA-fixed cardiomyocytes treated with a) vehicle (DMSO) or b) LCB2122 (5 uM) for six hours. […] White spots mark the nuclei.

[5] = tested on: atrial natriuretic factor (ANF); assay: ANF transcript QPCR on ventricles of WT and AT1R mice; format: in vivo; settings: 2.0 μg/Kg/day, 4 weeks, FIG. 13a
Text: The massive ANF upregulation seen in AT1R mice usually indicative of cardiac stress is attenuated in LCB2122 treated AT1R mice.

primary cardiomyocytes [6] = assay: TUNEL assay, DOX-induced apoptosis in primary cardiomyocyte monolayers; format: cell-based
Experimental: as §2

[7] = tested on: atrial natriuretic factor (ANF); assay: ANF ELISA on blood plasma of WT and AT1R mice; format: in vivo; settings: 2.0 μg/Kg/day, 4 weeks, FIG. 13b
Experimental: FIG. 13b) quantification of an ANF ELISA assay done on blood plasma samples from vehicle and LCB2122 (2.0 μg/Kg/day, 4 weeks) treated WT and AT1R mice ventricles. Once again, the increase in ANF plasma levels was attenuated in the LCB2122 treated AT1R mice.

Compound: COc1cccc2c1C(=O)c1c(O)c3c(c(O)c1C2=O)C[C@@](O)(C(=O)CO)C[C@@H]3O[C@H]1C[C@H](N)[C@H](O)[C@H](C)O1 [DOX, Doxorubicin, reference compound]
- ejection fraction (EF, %) after DOX alone ([1]; mice, two weeks after DOX ip injection, FIG. 9): decreased significantly
- ventricular wall thickness after DOX alone ([1]; wild type mice, DOX (5 μg/kg) as printed): induced also a loss of ventricular wall thickness

Compound: C#CCOc1ccc(C(=O)c2ccc(C(=O)OC[C@]3(C)[C@H](O)[C@@H](COP(=O)(OCC)OCC)O[C@H]3n3cnc4c(N)nc(Cl)nc43)cc2)cc1 [LCB2191, ((2R,3R,4S,5R)-2-(6-amino-2-chloro-9H-purin-9-yl)-5-(((diethoxyphosphoryl)oxy)methyl)-4-hydroxy-3-methyltetrahydrofuran-3-yl)methyl 4-(4-(prop-2-yn-1-yloxy)benzoyl)benzoate]
- IC50 (primary cardiomyocytes [2]; 6 h): 5 µM

Compound: CCOP(=O)(OCC)OC[C@H]1O[C@@H](n2cnc3c(N)nc(Cl)nc32)[C@](C)(COCc2ccccc2)[C@@H]1O [LCB2165, ((2R,3S,4R,5R)-5-(6-amino-2-chloro-9H-purin-9-yl)-4-((benzyloxy)methyl)-3-hydroxy-4-methyltetrahydrofuran-2-yl)methyl diethyl phosphate]
- IC50 (primary cardiomyocytes [2]; 6 h): 5 µM

Compound: CCOP(=O)(OCC)OC[C@H]1O[C@@H](n2cnc3c(N)nc(Cl)nc32)[C@](C)(CO)[C@@H]1O [LCB2122, ((2R,3S,4R,5R)-5-(6-amino-2-chloro-9H-purin-9-yl)-3-hydroxy-4-(hydroxymethyl)-4-methyltetrahydrofuran-2-yl)methyl diethyl phosphate]
- apoptotic cardiomyocytes (TUNEL, heart sections) (heart cardiomyocytes): significant decrease of apoptotic cardiomyocytes
- effect on antiproliferative effect of DOX ([3]; HepG2, DOX +/- LCB2122, FIG. 8): did not affect the antiproliferative effect of DOX
- effect on HepG2 sensitivity to DOX ([3]; up to 4 μM LCB2122): no effect on HepG2 sensitivity to DOX
- cardiac function (ejection fraction) in AT1R mice (AT1R mice; 2.0 μg/kg per day for 4 weeks, FIG. 12): significant improvement of the cardiac function
- cardiac function of normal (WT) mice (AT1R mice; 2.0 μg/kg/day for 4 weeks): did not alter cardiac function of normal mice
- share of treated AT1R mice with EF % equal and above 40% (AT1R mice; after four weeks of LCB2122): 55%
- EC50 (primary cardiomyocytes [4]): 5 µM
- cytoskeletal organization and cell size (α-actinin immunostaining) (cardiomyocytes): does not alter cytoskeletal organization or cell size
- ANF transcript upregulation in ventricles [5]: attenuated
- IC50 (primary cardiomyocytes [2]; 6 h): 1 µM
- EC50 (primary cardiomyocytes [6]; Cardiomyocyte, DOX 300 nM, TUNEL, FIG. 4, read-out: EC50, prevention of DOX-induced apoptotic cell death): 0.5 µM
- prevention of DOX-induced apoptotic cell death (primary cardiomyocytes [6]; DOX 300 nM, 6 hours, FIGS. 3 and 4): completely prevented DOX-induced apoptotic cell death
- DOX-induced apoptosis over time (primary cardiomyocytes [6]; DOX 300 nM, at 3, 6 or 24 hours): blocked
- induction of apoptosis by the compound alone (primary cardiomyocytes [6]; time course, any time points, FIG. 5): did not induce apoptosis
- ejection fraction (EF, %) after DOX ([1]; DOX ip, LCB2122 micropump for two weeks, FIG. 9): protected against DOX-induced toxicity
- left ventricle wall thickness after DOX ([1]; wild type mice, DOX, FIG. 10): protected against this DOX-induced wall thickness
- increase in ANF plasma levels [7]: attenuated

Compound: CC(C)OP(=O)(OC[C@H]1O[C@@H](n2cnc3c(N)nc(Cl)nc32)[C@](C)(CO)[C@@H]1O)OC(C)C [LCB2177, ((2R,3S,4R,5R)-5-(6-amino-2-chloro-9H-purin-9-yl)-3-hydroxy-4-(hydroxymethyl)-4-methyltetrahydrofuran-2-yl)methyl diisopropyl phosphate]
- IC50 (primary cardiomyocytes [2]; 3 μM Doxorubicin, 6 hours, TUNEL apoptotic nuclei, read-out: IC50): 5 µM
